Earlier results, collected in US20210299202A1, “FORMULATION OF C[…]” (CARDINAL ADVISORY LIMITED, priority 2018, published 2021).

Tests used:
[1] = oral ingestion
[2] = smoked, pulmonary absorption

SMILES: CCCCCc1cc(O)c2c(c1)OC(C)(C)[C@@H]1CCC(C)=C[C@@H]21 [THC, delta-9-tetrahydrocannabinol]
- time to peak plasma concentration [1]: 2 to 6 h
- time to peak plasma THC concentration [2]: 6 to 10 min
